From patent US11779768B2, “Protein activity modification” (Impulse Dynamics NV, priority 2004, dated 2023)
Where “and” joins values, the source holds several entries; their conditions need not be identical. Equal entries are not always repeated.

Columns and labels:
[1] = tested on: normal cells; details: advertised; cited from earlier work
[2] = tested on: phospholamban serine-16; experiment: Phosphorylation of PLB at serine-16 in failing LV tissue homogenate with/without protein kinase inhibitor and CCM signal (Western blot); format: biochemical, dog
Description: (§1) The tissue homogenate was prepared in the following manner. […] The homogenate was then filtered through 4 layers of cheese cloth. The resulting homogenate was stored in ice and its protein concentration was determined by the Lowry method.
(§2) The CCM signals were delivered to the homogenate as follows. The homogenate was diluted 2 fold in homogenate buffer and subsequently aliquotted 3 ml each in assay tubes. Assay tubes were divided into 2 sets (Set A and Set B), each subset consisting of […]. CCM signals were delivered for 10″, 30″, 1′, 5′, 30′, and 60′ in one of the sets, while the other set served as time control. The reaction was stopped by adding concentrated SDS. Protein assay on all the samples were performed by Lowry method.
(§3) Additional experiments of tissue homogenate were carried out in the presence and absence of protein kinese inhibitors. The homogenate was the same as above, from dogs with heart failure. […] CAS 62996-74-1.

[3] = target: protein kinase G; details: advertised; read-out: Inhibits protein kinase G IC50; cited from earlier work
[4] = tested on: platelet aggregation; details: advertised; cited from earlier work
[5] = tested on: human malignant glioma cell lines; details: advertised; cited from earlier work
[6] = tested on: phospholamban threonin-17; experiment: Phosphorylation of PLB at threonine-17 in failing LV tissue homogenate with/without protein kinase inhibitor and CCM signal (Western blot); format: biochemical, dog
Description: as §1, §2, §3

[7] = tested on: dogs with intracoronary microembolization-induced chronic HF; experiment: 3 months therapy with beta-blocker alone, beta-blocker combined with CCM, or no therapy in HF dogs: LV EDV, ESV, EF; format: in vivo, dog
Description: In a set of experiments, dogs with intracoronary microembolization-induced chronic HF (LV EF 30%-40%) were randomized to 3 months therapy with either BB (beta-blockers) alone (extended release metoprolol succinate, 100 mg once daily), extended release metoprolol succinate (100 mg, once daily) combined with CCM therapy, or to no therapy at all (Control). LV end-diastolic volume (EDV), end-systolic volume (ESV) and EF were measured before randomization (PRE) and after 3 months of therapy (POST). To determine “treatment effect”, the change A between PRE and POST therapy for each group was compared among the 3 study groups.

[8] = 10 sec, Control + PK Inhibitor (no CCM)
[9] = 20 sec, Control + PK Inhibitor (no CCM)
[10] = 30 sec, Control + PK Inhibitor (no CCM)
[11] = CCM signals delivered for 60 sec, PK Inhibitor + CCM

CN[C@@H]1C[C@H]2O[C@@](C)([C@@H]1OC)n1c3ccccc3c3c4c(c5c6ccccc6n2c5c31)C(=O)NC4 [STAUROSPORIN]
cell cycle of normal cells (G1 checkpoint) [1]: Arrests normal cells at the G1 checkpoint | P-PLB serine-16, single sample [2, 8]: 8.0 and 9.0 | P-PLB serine-16, single sample [2, 9]: 12.2 and 14.0 | P-PLB serine-16, Av [2, 10]: 9.4 | P-PLB serine-16, single sample [2, 10]: 6.8 and 9.7 | P-PLB serine-16, single sample ([2]; CCM signals delivered for 30 sec, PK Inhibitor + CCM): 14.3 and 13.0 | P-PLB serine-16, Av [2, 11]: 19.9 | P-PLB serine-16, single sample [2, 11]: 22.7 | serine-16 PLB phosphorylation response to CCM in presence of kinese inhibitor ([2]; HF dog LV homogenate): responded close to usual | IC50 [3]: 8.5 nM | platelet aggregation induced by collagen or ADP [4]: inhibits | thrombin-induced platelet aggregation [4]: no effect | apoptosis in human malignant glioma cell lines [5]: Induces apoptosis | P-PLB threonin-17, single sample [6, 8]: 8.9 and 9.5 | P-PLB threonin-17, Av [6, 9]: 9.0 | P-PLB threonin-17, single sample [6, 10]: 8.2 | P-PLB threonin-17, Av ([6]; 60 sec, Control + PK Inhibitor (no CCM)): 13.9 | P-PLB threonin-17, single sample ([6]; CCM signals delivered for 10 sec, PK Inhibitor + CCM): 14.6 and 9.9 and 8.7 | P-PLB threonin-17, single sample ([6]; CCM signals delivered for 20 sec, PK Inhibitor + CCM): 8.3 and 15.0 | P-PLB threonin-17, Av [6, 11]: 15.0 | threonin-17 PLB phosphorylation response to CCM in presence of kinese inhibitor ([6]; HF dog LV homogenate): reduced and delayed response

COCCc1ccc(OCC(O)CNC(C)C)cc1 (centres unmarked) [BB, metoprolol succinate]
Treatment effect (Δ PRE to POST) LV EF ([7]; BB 100 mg once daily combined with CCM therapy): 12±1% | LV EDV, effect of therapy ([7]; BB alone): prevented the increase | LV EF, effect of therapy ([7]; BB alone): significantly increased | LV ESV, effect of therapy ([7]; BB alone): significantly reduced | Treatment effect (Δ PRE to POST) LV EF ([7]; BB alone, 100 mg once daily): 6±1% | LV EDV, effect of therapy ([7]; BB combined with CCM): prevented the increase | LV EF, effect of therapy ([7]; BB combined with CCM): significantly increased | LV ESV, effect of therapy ([7]; BB combined with CCM): significantly reduced
